One experiment concerns the target T1, KAT6A (Homo sapiens, UniProt Q92794).
T1 construct: purchased Active Motif 81223
Kind of experiment: KATs acetyltransferase enzyme activity assay (TR-FRET), KAT6A. The experiment is classed as biochemical. The conditions noted are these: Biotin-H3 (1-21) and AcCOA, 90 minutes at room temperature. The protocol:
(§1) I. KATs acetyltransferase enzyme activity assay
• 1. The inhibitory effect of compounds on the acetyltransferase activity of KATs was evaluated using the Time-Resolved Fluorescence Resonance Energy Transfer (TR-FRET) assay. The assay was conducted in 384-well plates using Tris-HCl buffer. • 2. Compounds were diluted in DMSO and transferred to 384-well plates. […] Subsequently, 2.5 µL of a mixture containing KAT6A/KAT6B: Biotin-H3 (1-21, Genscript, C6829GL060) or KAT5/7/8: Bio-H4 (1-25, Genscript, C736BGL100) AcCOA (Sigma, A2056) was added, and the reaction proceeded at room temperature for 90 minutes. • 4. After the reaction, a detection mixture containing Europium-anti-acetyl-Histone H4 Lysine (H4Kac pan) Antibody (Perkin Elmer, TRF0412) and LANCE Ultra ULight™-Streptavidin in LANCE™ Detection buffer (10x) (Perkin Elmer, CR97-100) was added, followed by incubation at room temperature for 60 minutes. • 5. […] IC50 values were calculated by nonlinear regression using a four-parameter logistic equation in GraphPad Prism 8 software.

Experiment [1] has as its system ZR-75-1 H3K23 Acetylation. As to the kind of experiment: Histone H3 acetylation assay (H3K23 acetylation in ZR-75-1 cells). The experiment is classed as cell-based. The conditions noted are these: Homo sapiens, 72 hours incubation, Odyssey CLx fluorescence, read-out: ZR-75-1 H3K23 Acetylation Inhibition IC50. The protocol: III. Histone H3 acetylation assay
• 1. ZR-75-1 cells were seeded at 5000 cells/40 µL per well in 384-well plates and cultured overnight in an incubator at 37°C & 5% CO2. • 2. 40 nL of serially diluted compounds were added to the 384-well plates, followed by further incubation for 72 hours. • 3. The supernatant was discarded, and 8 w/v% paraformaldehyde (final concentration was 4 w/v%) was added directly to the wells to fix the cells at room temperature. • 4. After washing twice with PBS, a permeabilization agent (40 µL of methanol) was added and incubated for 10 minutes to permeabilize the cell membranes. • 5. After washing twice with PBS, a blocking buffer was added and incubated at room temperature for 1 hour for blocking. • 6. The blocking buffer was discarded, and 20 µL of primary antibodies (recombinant Anti-Histone H3 (acetyl K23) antibody and Anti-Histone H4 antibody) diluted in blocking buffer (1:1000 by volume dilution) were added, followed by incubation at 4°C overnight. • 7. After washing three times with PBST (0.05 vol% Tween-20 in PBS), 20 µL of fluorescent secondary antibodies (IRDye 680RD Goat anti-MOUSE, Licor, 926-68070; IRDye 800CW Goat anti-Rabbit, Licor, 926-32211) diluted in blocking buffer (1:2000 by volume dilution) were added, followed by incubation at room temperature, protected from light, for 1 hour. Then, the plates were washed three times with PBST. • 8. Scanning was performed using an Odyssey CLx, and the fluorescence signal value for each well was quantified. IC50 values were calculated by nonlinear regression using a four-parameter logistic equation in GraphPad Prism 8 software.

A further experiment relates to ZR-75-1 cells. Kind of experiment: ZR-75-1 cell proliferation assay (CellTiter-Glo). The experiment is classed as cell-based. To be noted: Homo sapiens, ZR-75-1, 240 h, total culture period of 10 days, read-out: ZR-75-1 Proliferation Inhibition IC50. How it is done:
II. ZR-75-1 cell proliferation assay
• 1. ZR-75-1 cells were seeded in 96-well plates and cultured overnight in an incubator at 37°C & 5% CO2. • 2. Compounds were diluted using culture medium and added to the 96-well plates. The plates were placed back into the incubator for continued culture. Every 5 days, the cells were trypsinized, counted, and re-seeded. After the cells had fully adhered, compounds were added again for incubation, for a total culture period of 10 days. • 3. After the culture period, 60 µL of CellTiter-Glo reagent (Promega, G7573) was added to each well. The plates were protected from light and shaken for 2 minutes to lyse the cells, followed by further incubation at room temperature, protected from light, for 30 minutes. • 4. Luminescence signals were read using a BMG PHERAstar FSX. IC50 values were calculated by nonlinear regression using a four-parameter logistic equation in GraphPad Prism 8 software.

The next experiment addresses T2, KAT6B (Homo sapiens, UniProt Q8WYB5).
T2 construct: purchased Active Motif 81224
Kind of experiment: KATs acetyltransferase enzyme activity assay (TR-FRET), KAT6B. The class given is biochemical. To be noted: Biotin-H3 (1-21) and AcCOA, 90 minutes at room temperature. The protocol:
as §1
• 1. The inhibitory effect of compounds on the acetyltransferase activity of KATs was evaluated using the Time-Resolved Fluorescence Resonance Energy Transfer (TR-FRET) assay. The assay was conducted in 384-well plates using Tris-HCl buffer. • 2. Compounds were diluted in DMSO and transferred to 384-well plates. Enzyme solutions (KAT6: active motif (kit), 81223; KAT6B: active motif, 81224; KAT5: SignalChem, K314-380G; KAT7: ICE, S2210F-H21HF; KAT8: Active motif, 81225) were added and the mixture was incubated at room temperature for 15 minutes. • 3. Subsequently, 2.5 µL of a mixture containing KAT6A/KAT6B: Biotin-H3 (1-21, Genscript, C6829GL060) or KAT5/7/8: Bio-H4 (1-25, Genscript, C736BGL100) AcCOA (Sigma, A2056) was added, and the reaction proceeded at room temperature for 90 minutes. • 4. After the reaction, a detection mixture containing Europium-anti-acetyl-Histone H4 Lysine (H4Kac pan) Antibody (Perkin Elmer, TRF0412) and LANCE Ultra ULight™-Streptavidin in LANCE™ Detection buffer (10x) (Perkin Elmer, CR97-100) was added, followed by incubation at room temperature for 60 minutes. • 5. HTRF signals were measured using a BMG PHERAstar FSX (Ratio: 665nm/620nm). IC50 values were calculated by nonlinear regression using a four-parameter logistic equation in GraphPad Prism 8 software.

T1 sequence (Q92794 488-778 limits assumed): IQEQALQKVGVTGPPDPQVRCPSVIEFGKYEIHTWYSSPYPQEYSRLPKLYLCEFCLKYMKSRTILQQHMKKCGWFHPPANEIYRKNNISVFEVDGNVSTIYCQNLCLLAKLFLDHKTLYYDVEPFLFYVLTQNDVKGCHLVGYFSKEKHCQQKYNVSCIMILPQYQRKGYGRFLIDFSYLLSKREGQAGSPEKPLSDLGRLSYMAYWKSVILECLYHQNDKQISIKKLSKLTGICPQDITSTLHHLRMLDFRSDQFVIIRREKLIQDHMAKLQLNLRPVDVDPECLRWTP
T2 sequence (Q8WYB5 whole entry): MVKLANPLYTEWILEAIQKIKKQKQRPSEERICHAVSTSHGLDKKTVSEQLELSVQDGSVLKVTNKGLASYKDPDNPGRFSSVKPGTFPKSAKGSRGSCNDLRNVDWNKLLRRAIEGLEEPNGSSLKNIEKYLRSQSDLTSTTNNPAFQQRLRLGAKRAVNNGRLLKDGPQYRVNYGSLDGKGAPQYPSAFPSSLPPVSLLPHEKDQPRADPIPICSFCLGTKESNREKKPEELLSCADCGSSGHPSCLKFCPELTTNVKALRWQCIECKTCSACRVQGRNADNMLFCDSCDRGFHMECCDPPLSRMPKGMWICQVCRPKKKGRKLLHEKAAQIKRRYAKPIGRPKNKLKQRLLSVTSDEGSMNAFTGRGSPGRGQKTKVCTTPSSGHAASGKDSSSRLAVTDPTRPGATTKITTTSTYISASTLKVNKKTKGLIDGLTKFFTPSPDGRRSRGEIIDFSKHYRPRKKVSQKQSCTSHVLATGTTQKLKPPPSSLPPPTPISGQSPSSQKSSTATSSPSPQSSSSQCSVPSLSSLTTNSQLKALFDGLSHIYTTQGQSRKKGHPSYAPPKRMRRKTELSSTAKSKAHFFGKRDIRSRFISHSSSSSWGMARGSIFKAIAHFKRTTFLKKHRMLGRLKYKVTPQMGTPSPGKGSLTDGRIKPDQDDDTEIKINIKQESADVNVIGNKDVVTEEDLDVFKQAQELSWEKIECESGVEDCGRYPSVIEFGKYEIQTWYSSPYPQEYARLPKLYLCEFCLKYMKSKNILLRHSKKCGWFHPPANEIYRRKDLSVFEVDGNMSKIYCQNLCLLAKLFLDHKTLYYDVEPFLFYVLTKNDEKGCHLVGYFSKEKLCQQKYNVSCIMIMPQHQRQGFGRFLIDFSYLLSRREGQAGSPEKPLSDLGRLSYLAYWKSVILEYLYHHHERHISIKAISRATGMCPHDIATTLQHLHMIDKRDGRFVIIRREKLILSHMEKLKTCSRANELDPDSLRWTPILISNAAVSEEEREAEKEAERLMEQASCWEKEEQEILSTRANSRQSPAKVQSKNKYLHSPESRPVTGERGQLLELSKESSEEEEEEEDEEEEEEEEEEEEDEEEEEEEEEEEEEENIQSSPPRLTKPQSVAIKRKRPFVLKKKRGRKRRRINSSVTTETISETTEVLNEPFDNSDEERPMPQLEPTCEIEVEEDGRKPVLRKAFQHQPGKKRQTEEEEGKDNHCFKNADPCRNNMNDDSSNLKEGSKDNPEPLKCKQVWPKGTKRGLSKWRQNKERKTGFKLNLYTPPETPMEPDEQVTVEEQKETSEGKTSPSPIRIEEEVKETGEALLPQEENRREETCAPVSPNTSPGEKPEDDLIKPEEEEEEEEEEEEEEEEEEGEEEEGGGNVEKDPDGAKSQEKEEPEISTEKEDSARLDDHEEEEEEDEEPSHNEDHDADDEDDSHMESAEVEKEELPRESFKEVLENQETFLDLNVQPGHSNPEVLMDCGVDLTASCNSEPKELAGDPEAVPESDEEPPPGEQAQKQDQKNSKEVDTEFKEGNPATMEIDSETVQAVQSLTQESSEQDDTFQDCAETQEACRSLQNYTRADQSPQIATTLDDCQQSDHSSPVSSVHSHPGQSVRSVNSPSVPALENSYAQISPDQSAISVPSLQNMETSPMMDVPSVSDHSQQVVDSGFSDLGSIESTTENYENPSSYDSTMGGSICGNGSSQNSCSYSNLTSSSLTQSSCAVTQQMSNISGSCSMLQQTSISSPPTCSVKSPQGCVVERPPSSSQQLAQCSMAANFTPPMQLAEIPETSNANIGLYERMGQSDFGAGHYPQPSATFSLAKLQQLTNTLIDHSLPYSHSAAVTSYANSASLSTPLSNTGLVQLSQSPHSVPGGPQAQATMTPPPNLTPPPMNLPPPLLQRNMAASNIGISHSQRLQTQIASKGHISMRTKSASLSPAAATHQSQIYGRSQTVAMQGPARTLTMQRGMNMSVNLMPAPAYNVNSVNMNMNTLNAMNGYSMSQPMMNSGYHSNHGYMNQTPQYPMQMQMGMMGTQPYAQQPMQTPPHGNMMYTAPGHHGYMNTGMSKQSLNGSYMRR

On to `COc1ccc2c(c1S(=O)(=O)Nc1noc3cc(Cn4cccn4)c(F)cc13)OCC1CC21` (single isomer, unassigned) [Compound 34], for which the IC50 at KAT6A came to 1.2 nM; in experiment [1] it was 0.4 nM; with ZR-75-1 cells, 0.04 nM; against KAT6B, 2.2 nM.
Taken in the same sequence, the figures for `COc1ccc2c(c1S(=O)(=O)Nc1noc3cc(Cn4cccn4)c(F)c(OC)c13)OCCCO2` [Compound 29, N-(6-((1H-Pyrazol-1-yl)methyl)-5-fluoro-4-methoxybenzo[d]isoxazol-3-yl)-7-methoxy-3,4-dihydro-2H-benzo[b][1,4]dioxepine-6-sulfonamide] were 3 nM, 4.6 nM, 0.6 nM and 23.3 nM.
On to `COc1ccc2c(c1S(=O)(=O)Nc1noc3cc(Cn4cccn4)c(F)c(OC)c13)OCC1CC21` (single isomer, unassigned) [Compound 30-P1], for which the IC50 stood at 1.4 nM against KAT6A, 0.3 nM in experiment [1], 0.08 nM in the experiment on ZR-75-1 cells and 1.4 nM against KAT6B.
Turning to `COc1ccc2c(c1S(=O)(=O)Nc1noc3cc(Cn4cccn4)c(F)c(OC)c13)OCC1CC21` (centres unmarked) [Compound 30, N-(6-((1H-Pyrazol-1-yl)methyl)-5-fluoro-4-methoxybenzo[d]isoxazol-3-yl)-5-methoxy-1,1a,2,7b-tetrahydrocyclopropa[c]chromene-4-sulfonamide], the IC50 against KAT6A came out at 0.8 nM; in experiment [1], 0.8 nM; with ZR-75-1 cells, 0.15 nM; against KAT6B it was 1.8 nM.
In the case of `COc1ccc2c(c1S(=O)(=O)Nc1noc3cc(Cn4cccn4)c(OC)c(C)c13)OCC21CC1` [Compound 39, N-(6-((1H-Pyrazol-1-yl)methyl)-5-methoxy-4-methylbenzo[d]isoxazol-3-yl)-6-methoxy-2H-spiro[benzofuran-3,1'-cyclopropane]-7-sulfonamide], the IC50 against KAT6A came to 2.2 nM; in experiment [1] it was 23.7 nM; in the experiment with ZR-75-1 cells it was 2.6 nM; at KAT6B it was 37.6 nM.
With `CCc1c(Cn2cccn2)cc2onc(NS(=O)(=O)c3c(OC)ccc4c3OCC3CC43)c2c1OC` (centres unmarked) [Compound 27, N-(6-((1H-Pyrazol-1-yl)methyl)-5-ethyl-4-methoxybenzo[d]isoxazol-3-yl)-5-methoxy-1,1a,2,7b-tetrahydrocyclopropa[c]chromene-4-sulfonamide], the IC50 against KAT6A amounted to 1.3 nM; in experiment [1] it was 27.1 nM; with ZR-75-1 cells, 11.5 nM; against KAT6B, 8.9 nM.
For `COc1ccc2c(c1S(=O)(=O)Nc1noc3cc(Cn4cccn4)c(F)cc13)OCCCO2` [Compound 12, N-(6-((1H-Pyrazol-1-yl)methyl)-5-fluorobenzo[d]isoxazol-3-yl)-7-methoxy-3,4-dihydro-2H-benzo [b] [1,4] dioxepine-6-sulfonamide] the same measures were 6.5 nM, 4.5 nM, 1.4 nM and 40 nM.
Taken in the same sequence, the figures for `COc1ccc2c(c1S(=O)(=O)Nc1noc3cc(Cn4cccn4)cc(OC)c13)OCC1CC21` (centres unmarked) [Compound 5, N-(6-((1H-Pyrazol-1-yl)methyl)-4-methoxybenzo[d]isoxazol-3-yl)-5-methoxy-1,1a,2,7b-tetrahydrocyclopropa[c]chromene-4-sulfonamide] were 1.5 nM, 0.5 nM, 0.2 nM and 3.7 nM.
Taken in the same sequence, the figures for `COc1ccc2c(c1S(=O)(=O)Nc1noc3cc(Cn4cccn4)cc(OC)c13)OC[C@H]1C[C@@H]21` [Compound 5-P1, (1aS,7bR)-N-(6-((1H-Pyrazol-1-yl)methyl)-4-methoxybenzo[d]isoxazol-3-yl)-5-methoxy-1,1a,2,7b-tetrahydrocyclopropa[c]chromene-4-sulfonamide] were 2.5 nM, 1.9 nM, 0.3 nM and 11.1 nM.
As for `COc1ccc2c(c1S(=O)(=O)Nc1noc3cc(Cn4cccn4)cc(OC)c13)OCCOC2` [Compound 10, N-(6-((1H-Pyrazol-1-yl)methyl)-4-methoxybenzo[d]isoxazol-3-yl)-8-methoxy-2,3-dihyd ro-5H-benzo [e] [1,4] dioxepine-9-sulfonamide], the IC50 on KAT6A is 2.2 nM; in experiment [1], 2.3 nM; in the experiment on ZR-75-1 cells, 1.4 nM; against KAT6B it was 19.9 nM.
On to `COc1ccc2c(c1S(=O)(=O)Nc1noc3cc(Cn4cccn4)c4c(c13)OCC4)OCC1CC21` (centres unmarked) [Compound 37, N-(4-((1H-Pyrazol-1-yl)methyl)-2,3-dihydrobenzofuro[7,6-d]isoxazol-8-yl)-5-methoxy-1,1a,2,7b-tetrahydrocyclopropa[c]chromene-4-sulfonamide], for which the IC50 against KAT6A amounted to 1.6 nM; in experiment [1] it was 1.2 nM; in the experiment on ZR-75-1 cells, 0.4 nM; on KAT6B, 4.1 nM.
Turning to `COc1cc2c(cc1S(=O)(=O)Nc1noc3cc(Cn4cccn4)cc(OC)c13)OCCOC2` [Compound 8], the IC50 came out at 2.7 nM on KAT6A, 10.3 nM in experiment [1], 4.2 nM in the experiment on ZR-75-1 cells and 40.8 nM on KAT6B.
For `COc1ccc2c(c1S(=O)(=O)Nc1noc3cc(Cn4cccn4)cc(OC)c13)OCCCN2C` [Compound 41, N-(6-((1H-Pyrazol-1-yl)methyl)-4-methoxybenzo[d]isoxazol-3-yl)-8-methoxy-5-methyl-2,3,4,5-tetrahydrobenzo[b][1,4]oxazepine-9-sulfonamide] the same measures were 8.9 nM, 20.2 nM, 4.8 nM and 97.5 nM.
On to `COc1ccc2c(c1S(=O)(=O)Nc1noc3cc(Cn4cccn4)c(C4CC4)cc13)OCCCO2` [Compound 14, N-(6-((1H-Pyrazol-1-yl)methyl)-5-cyclopropylbenzo[d]isoxazol-3-yl)-7-methoxy-3,4-di hydro-2H-benzo[b][1,4]dioxepine-6-sulfonamide], for which the IC50 against KAT6A came to 1.4 nM; in experiment [1] it was 11.5 nM; with ZR-75-1 cells it was 8.6 nM; on KAT6B, 12.7 nM.

Source of the values: EP4741389A1, “KAT6 INHIBITOR” (Shanghai Qilu Pharmaceutical Research and Development …, priority 2023, dated 2025).
